| melting point [°C] | SMILES |
| --- | --- |
| 174 to 175 | Cc1cc2c(s1)S(=O)CCc1cc(=O)n(-c3ccc(Cl)cc3)nc1-2 (centres undefined) |
| 125 to 128 | O=C1OC(O)c2c(F)ccc(F)c21 (centres undefined) |
| 262 | O=c1oc2ccccc2c(O)c1-c1ccc(Cl)c(Cl)c1 |
| 70 to 72 | Nc1cn(-c2cccnc2)nc1Cl |
| 315 to 317 | COc1ccc(C(=O)Nc2c(Cl)cncc2Cl)c2c1oc1ccc([N+](=O)[O-])cc12 |
| 80 to 80.7 | CN(C)CC(O)c1cc(C(F)(F)F)nc2c(C(F)(F)F)cccc12 (centres undefined) |
| 281 to 282 | O=C(Nc1c[nH]nc1C(=O)Nc1ccccc1)c1ccccn1 |
| 138 to 140 | C/C(=C\c1ccc(O)cc1)c1ccc2c(c1)C(C)(C)CCC2(C)C |
| 145 to 153 | COc1ccc(NN=C(Sc2ccc(S(C)(=O)=O)cc2)C(C)=O)cc1 |
| 264 | CC(C)n1cc(-c2nc(C(N)=O)c(N)nc2-c2ccc(OC(F)(F)F)cc2)ccc1=O |
| 239 to 242 | Cn1cc(-c2ccc(Cl)cc2)c(=S)c(-c2cccc(C(F)(F)F)c2)c1 |
| 151 to 152 | O=C1CCN(Cc2ccccc2O)CC1C(c1ccc(F)cc1)c1ccc(F)cc1 (centres undefined) |
| 297 to 298 | CN(C)c1ccc(-c2cc3nccnc3[nH]2)cc1 |
| 159 to 161 | CCN(C)C(=O)Nc1c(C(=O)c2ccccc2)[nH]c2cc(Cl)ccc12 |
| 270 | CNc1ncc2c(-c3cccc(Cl)c3)cc(-c3cccc(C(=O)O)c3)c(OC)c2n1 |
| 141 to 143 | O=S(=O)(Nc1cccc(CCOCc2csc(-c3ccc(F)c(Cl)c3)n2)c1)C(F)(F)F |
| 186 to 188 | OC1N=C(c2ccccc2F)c2cc(Cl)ccc2-c2ncncc21 (centres undefined) |
| 208 to 210 | Cc1cccc(NC(=O)NCC(=O)Nc2ccccc2C(=O)c2cccs2)c1 |

| melting point [°C] | SMILES |
| --- | --- |
| 131 to 133 | CC(C)(C)C(=O)OC(COc1cccc2[nH]nnc12)CN1CCC(COc2ccccc2)CC1 (centres undefined) |
| 88 to 89 | c1ccc(Cc2nc(-c3ccncc3)cs2)cc1 |
| 130 to 131 | Cc1ccc2c(n1)N(CCCN(C)C)c1ccccc1N(C)C2=O |
| 168 to 169 | CC(C)c1cccc(C(C)C)c1NC(=S)CCC(=O)c1ccccc1 |
| 285 | O=C(Nc1ccc2ccc(Cl)nc2n1)c1ccc(Br)o1 |
| 245 to 247 | Nc1nc(Nc2ccc(N3CCOCC3)cc2)sc1C(=O)c1c(Cl)cccc1Cl |
| 117 to 119 | COC1=C(OC)C(=O)C2=C(CCC(CCOc3ccc(Cl)cc3)CC2)C1=O |
| 95 to 96 | COC(=O)C(N)Cc1ccc(OCCN(C)c2nc3ccccc3o2)cc1 (centres undefined) |
| 110 to 111 | Cc1c(N)c(C)c2c(c1CCCO)OCC2c1ccc(C(C)C)cc1 (centres undefined) |
| 75 | C[C@H](O)c1ccccc1S(=O)(=O)c1ccc(/C=C/c2ccc(F)cc2)cc1 |
| 64.5 to 65 | OC(c1ccc(Cl)cc1)c1cccc(Br)n1 (centres undefined) |
| 166 to 167 | O=C(O)c1ccccc1NC(=S)Cc1ccccc1 |
| 261 to 264 | COc1ccc([N+](=O)[O-])c(Nc2ccc3cn[nH]c3c2)n1 |
| 153 to 154 | CCN1c2ncc(CC(O)c3ccncc3)cc2C(=O)N(C)c2ccc(Cl)nc21 (centres undefined) |
| 110 to 112 | O=C(NCC1Cc2ccc3ccccc3c2O1)OCc1ccccc1 (centres undefined) |
| 68 to 69 | O=C1SCCN1Cc1ccc(Cl)cc1 |
| 140 to 144 | O=C1Cc2ccccc2C(=O)N1Cc1ccccc1F |
| 86 to 87 | O=C(NCCc1ccccc1)C1CCc2ccccc2C1 (centres undefined) |

The next lines start with the compound.

| SMILES | melting point [°C] |
| --- | --- |
| CN1CC[C@H](c2c(O)cc(O)c3c(=O)cc(-c4ccccc4Cl)oc23)[C@H](O)C1 | 182 |
| CN(C)Nc1nc(Cl)nc2c1ncn2C1OC(CCl)C(O)C1O (centres undefined) | 188 to 189 |
| CCOC(=O)Cc1ccc(NC(=O)C(COC2CCCCO2)NS(=O)(=O)c2ccc(Cl)c([N+](=O)[O-])c2)cc1 (racemic) | 108 to 111 |
| COC(=O)N/C(=C\C[PH](=O)CO)C(=O)O (centres undefined) | 254 to 256 |
| CCOCc1nc2c(N)nc3ccc(OCc4cccnc4)cc3c2n1CC(C)C | 204 to 206 |
| COc1cc(C(=O)N2Cc3ccc(C(=O)NCc4cccc(C(F)(F)F)c4)n3Cc3ccccc32)ccc1-c1ccccc1C | 176 to 177 |
| CNC(=O)C1=C(C(=O)Nc2cc(OC3CCCC3)c(Cl)cc2F)CCCC1 | 179 to 180 |
| O=C(O)c1c2n(c3cc(N4CCNCC4)c(F)cc3c1=O)C(c1ccccc1)S2 (centres undefined) | 200 to 205 |
| CCN(C1CC(C)(C)Oc2ccc(O)cc21)S(C)(=O)=O (centres undefined) | 169 to 170 |
| CC(C)=CCOc1ccc(C(=O)C=Cc2ccncc2)c(O)c1 | 99 to 100 |
| CONC(=O)[C@@H](Cc1ccccc1)NC(=O)OC | 154 to 155 |
| O=C(N[C@H]1CCN(C(=O)c2cc(C(F)(F)F)cc(C(F)(F)F)c2)[C@H](Cc2ccccc2)C1)c1ccnc2ccccc12 | 187 |
| CCCSc1nc(Br)c(Br)n1Cc1cc2c(cc1Cl)OCO2 | 116 |
| CCCCCCC1=NOC(=O)/C1=C\Nc1ccc(CCCCCC)cc1 | 88 to 90 |
| COc1ccncc1Nc1nc(N2CCOCC2)nc(-n2c(C(F)F)nc3ccccc32)n1 | 161 to 163 |
| Cn1c(OCc2ccccc2)noc1=O | 80 to 83 |
| C=Cn1cc(C(=O)OCC)c(=O)c2cc(F)c(N3CCNCC3)cc21 | 208 to 210 |
| C=CCn1c(NNC(=O)CCCl)nc2ccccc2c1=O | 151 to 153 |
| O=C(Nc1cc(Cl)cc(Cl)c1O)C(=O)Nc1ncc(Cl)cc1Cl | 245 |
| NC(=O)c1coc(-c2cccc(C3=Nc4ccc(-n5cccc5)cc4NC(=O)C3)c2)n1 | 232 to 234 |
| O=C(O)c1cn(C2CC2)c2cc(-c3ccncc3)ccc2c1=O | 278 to 281 |

| SMILES | melting point [°C] |
| --- | --- |
| Cc1cc(-c2ccc(C(F)(F)F)cc2)nc(-n2cnc(-c3ccc(S(N)(=O)=O)s3)c2)n1 | 277 |
| c1ccc(Cn2cnc3ccc(NC4=NCCN4)cc32)cc1 | 174 to 175 |
| O=C(CCCl)c1ccc2c3c1CCCC3C(=O)N2 (centres undefined) | 175 to 178 |
| CCn1nc(-c2ccccc2)c(C(C)=O)c([N+](=O)[O-])c1=O | 226 to 227 |
| CCOC(=O)CCCCCN(C)S(=O)(=O)C1=C(C)NC(C)=C(C(=O)OC)C1c1cccc([N+](=O)[O-])c1 (centres undefined) | 83 to 86 |
| N#Cc1cc2sccc2nc1Cl | 222 to 224 |
| COC(=O)c1ccc2[nH]c(=O)oc(=O)c2c1 | 275 to 278 |
| Cc1ccc2c(n1)sc1c(S)nnnc12 | 205 to 208 |
| Cc1ccc(S(=O)(=O)n2c(C3(O)C=CC(=O)c4ccccc43)cc3ccccc32)cc1 (centres undefined) | 110 to 112 |
| COC(=O)c1cc(Cl)c2nc(C)cn2c1N | 188 to 191 |
| CC(C)(C)OC(=O)NCC(=O)Nc1cccc(NC(=N)N2CCCC2)c1 | 182 to 183 |
| CCC1=NC(NC(=O)Nc2cccc(C)c2)C(=O)N(CC(=O)N2CCCCCCC2)c2c(C)cccc21 (centres undefined) | 189 to 190 |
| CC1(C(O)=Nc2cc(Cl)cc(Cl)c2)CCC1C(=O)O (centres undefined) | 110 to 111 |
| O=c1c2cc(F)c(N3CCCC3)nc2n(-c2ccc(F)cc2)c(=O)n1O | 172 to 174 |
| CNC(=NC#N)NCCCSc1nccc(NC(N)=NCC(F)(F)F)n1 | 159 to 160 |
| COc1ccc(N2CCN(c3c(C)c(C)c4c(c3C)C(O)(c3ccc(OC(F)(F)F)cc3)C(C)(C)O4)CC2)cc1 (centres undefined) | 175 to 176 |
| CC(=O)Nc1cccc(OC2CCNCC2)c1 | 164 to 165 |
| CCOC(=O)c1cn(Cc2cccnc2)nc1OCc1cccnc1 | 120 to 121 |
| COC(=O)c1c(C)nc(C)c(C(=O)OCC2CCCO2)c1-c1cccc(NC(C)=O)c1 (centres undefined) | 196 to 198 |
| CCCC(=O)Oc1ccc(S(=O)(=O)CS(N)(=O)=O)cc1 | 160 to 161 |
| CCOC(=O)c1nc(NC)sc1C(=O)CC | 84 to 86 |

| SMILES | melting point [°C] |
| --- | --- |
| Cc1ccc(COc2ccc(C(=O)NC[C@@H](C(=O)NO)N3CCN(S(C)(=O)=O)CC3)cc2)cc1 | 180 |
| CCOc1ccc2c(=O)c(C(=O)O)cn(CCO)c2n1 | 220 |
| CCC1C(CC)N1S(=O)(=O)c1ccc(C)cc1 (centres undefined) | 69 to 70 |
| CC(C)C1(C)NC(c2ncccc2C#N)=NC1=O (centres undefined) | 144 to 148 |
| CC1(C)Oc2c(cc(Cl)c3oc(C(=O)O)cc(=O)c23)-c2ccc(S(=O)(=O)O)cc21 | 257 to 259 |
| COc1ccc(C2CNCCc3c2cc(OC)c(OC)c3Cl)cc1 (centres undefined) | 139 to 142 |
| CCCNC(=O)C1=CCC2C3CCc4cc(O)ccc4C3CCC12C (centres undefined) | 168 to 169 |
| COc1ccc2[nH]c(CC(C)C)c(/C=C/C(=O)c3ccncc3)c2c1 | 217 to 218 |
| COc1nc2cc(Cl)c(Cl)c(-n3c(CN4CCOCC4)nnc3-c3cccnc3)c2nc1OC | 178 to 179 |
| c1ccc(CSc2nc3cc4c(cc3[nH]2)OCCO4)nc1 | 155 to 156 |
| CC(C)(C)OC(=O)N1C(=O)[C@H]2C=C[C@@H]1C2 | 70.5 to 71.5 |
| CN(Cc1ccc(S(C)(=O)=O)cc1)S(=O)(=O)c1cn(S(=O)(=O)N(C)C)c(C#N)n1 | 169 to 172 |
| C=CCN1CCc2cc(OC)c(O)c3c2C1Cc1cc(OC)c(OC)cc1-3 (single isomer, unassigned; (+)) | 85 to 93 |
| CC(C)(C)OC(=O)NNC(=O)c1cc(OCc2ccccc2)c(OCc2ccccc2)c(CSc2ccncc2)n1 | 181 to 182 |
| COc1cc(O)cc(C(F)(F)F)c1 | 75 |
| CC(=O)NS(=O)(=O)c1cccc(NC(=O)NC2N=C(c3ccccc3F)c3ccccc3N(CC(=O)N3CC4CCC(CC4)C3)C2=O)c1 (racemic) | 193 to 203 |
| COc1ccc2c(c1)CC(N(CC(=O)O)C(=O)C(C)CSC(C)=O)CC2 (centres undefined) | 147 to 150 |
| Cc1cc(C(F)(F)F)n2nc(NS(=O)(=O)c3ccccc3Cl)nc2n1 | 203 to 204 |
| CC(C)(N)c1ccc(-c2nc(Nc3ccc(CCN4CCOCC4)cc3)ncc2C#N)cc1 | 156 |
| CNc1nc(Nc2ccc(CNC(=O)OC(C)(C)C)cc2)ncc1[N+](=O)[O-] | 260 |
| CN1C(=O)CN(c2cccc(C(F)(F)F)c2)NC1=O | 163 to 165 |

Source: a melting point compilation (Tetko et al.; mined from patent text by program, amines drawn as free bases though some values may be those of a salt)
